Reference: patent US20230029385A1, “2-METHYL-AZA-QUINAZOLINES” (Bayer Aktiengesellschaft, priority 2019, published 2023)
pIC50: −log10 of the molar value.

Tests used:
[1] = biological target: T1, human SOS1 (hSOS1) with human K-RasG12C (hK-RasG12C) (Homo sapiens, UniProt Q07889); assay: hK-RasG12C interaction assay with hSOS1 (Biochemical Assay 1, HTRF); assay type: binding; settings: mean, read-out: K-RasG12C- SOS interaction assay IC50 - [mol/l] (mean)
T1 construct: His10-hSOS1; made in house; host or cells: E. coli BL21 (DE3)
T1 sequence (Q07889 with tags, fused parts or gaps): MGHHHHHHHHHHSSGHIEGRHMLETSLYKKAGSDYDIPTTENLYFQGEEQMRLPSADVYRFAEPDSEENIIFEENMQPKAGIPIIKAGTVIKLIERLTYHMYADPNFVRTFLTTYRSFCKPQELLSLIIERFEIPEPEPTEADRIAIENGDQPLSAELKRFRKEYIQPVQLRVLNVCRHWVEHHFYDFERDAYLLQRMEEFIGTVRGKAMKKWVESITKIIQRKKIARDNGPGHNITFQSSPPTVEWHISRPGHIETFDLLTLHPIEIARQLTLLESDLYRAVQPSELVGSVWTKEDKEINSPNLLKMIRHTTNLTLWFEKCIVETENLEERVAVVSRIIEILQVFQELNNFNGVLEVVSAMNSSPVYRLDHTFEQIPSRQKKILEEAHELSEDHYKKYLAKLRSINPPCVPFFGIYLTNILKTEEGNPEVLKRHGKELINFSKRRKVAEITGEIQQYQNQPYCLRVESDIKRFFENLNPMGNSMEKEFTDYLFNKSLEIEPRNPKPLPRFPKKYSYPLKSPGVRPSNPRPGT
Description: Biochemical Assay 1: hK-RasG12C Interaction Assay with hSOS1
This assay quantifies the equilibrium interaction of human SOS1 (hSOS1) with human K-Ras^G12C (hK-RasG12C). Detection of the interaction is achieved by measuring homogenous time-resolved fluorescence resonance energy transfer (HTRF) from antiGST-Europium (FRET donor) bound to GST-K-RasG12C to anti-6His-XL665 bound to His-tagged hSOS1 (FRET-acceptor).
The assay buffer containes 5 mM HEPES pH 7.4 (Applichem), 150 mM NaCl (Sigma), 10 mM EDTA (Promega), 1 mM DTT (Thermofisher), 0.05% BSA Fraction V, pH 7.0, (ICN Biomedicals), 0.0025% (v/v) Igepal (Sigma) and 100 mM KF (FLUKA).
The expression and purification of N-terminal GST-tagged hK-RasG12C and N-terminal His-tagged hSOS1 is described below. Concentrations of protein batches used are optimized to be within the linear range of the HTRF signal. A Ras working solution is prepared in assay buffer containing typically 10 nM GST-hK-RasG12C and 2 nM antiGST-Eu(K) (Cisbio, France). A SOS1 working solution is prepared in assay buffer containing typically 20 nM His-hSOS1 and 10 nM anti-6His-XL665 (Cisbio, France). An inhibitor control solution is prepared in assay buffer containing 10 nM anti-6His-XL665 without hSOS1.
(§1) Fifty nl of a 100-fold concentrated solution of the test compound in DMSO are transferred into a black microtiter test plate (384 or 1536, Greiner Bio-One, Germany). For this, either a Hummingbird liquid handler (Digilab, Mass., USA) or an Echo acoustic system (Labcyte, Calif., USA) is used.
(§2) All steps of the assay are performed at 20° C. A volume of 2.5 μl of the Ras working solution is added to all wells of the test plate using a Multidrop dispenser (Thermo Labsystems). After 2 min preincubation, 2.5 μl of the SOS1 working solution are added to all wells except for those wells at the side of the test plate that are subsequently filled with 2.5 μl of the inhibitor control solution. After 60 min incubation the fluorescence is measured with a Pherastar (BMG, Germany) using the HTRF module (excitation 337 nm, emission 1: 620nm, emission 2: 665 nm).
(§3) The ratiometric data (emission 2 divided by emission 1) are normalized using the controls (DMSO=0% inhibition, inhibition control wells with inhibitor control solution=100% inhibition). Compounds are tested in duplicates at up to 11 concentrations (for example 20 μM, 5.7 μM, 1.6 μM, 0.47 μM, 0.13 μM, 38 nM, 11 nM, 3.1 nM, 0.89 nM, 0.25 nM and 0.073 nM). IC50 values are calculated by 4-Parameter fitting using a commercial software package (Genedata Screener, Switzerland).

[2] = biological target: T2, hK-RasG12C activation by hSOS1 (Homo sapiens, UniProt Q07889); assay: hK-RasG12C activation assay by hSOS1 (Biochemical Assay 3, HTRF); settings: mean; assay 3, loading with fluorescent GTP-analog; read-out: K-RasG12C activation by SOS IC50 - [mol/l] (mean)
T2 construct: His10-hSOS1; made in house; host or cells: E. coli BL21 (DE3)
T2 sequence (Q07889 with tags, fused parts or gaps): T1 sequence (Q07889 with tags, fused parts or gaps)
Text: Biochemical Assay 3: hK-RasG12C Activation Assay by hSOS1
K-Ras is a small GTPase that can bind GDP and GTP. The guanine nucleotide exchange factor SOS1 catalyzes the activation of K-Ras by promoting the exchange of GDP to GTP. SOS1 binds to K-Ras-GDP thereby opening the GDP-binding pocket to facilitate GDP release. Rebinding of excess nucleotide leads to dissociation of the K-Ras-SOS1 intermediate complex leaving K-Ras loaded with the nucleotide.
This assay quantifies human SOS1- (hSOS1-) mediated loading of human K-Ras^G12C-GDP (hK-RasG12C-GDP) with a fluorescent GTP-analog. Detection of successful loading is achieved by measuring homogenous time-resolved fluorescence resonance energy transfer (HTRF) from antiGST-Terbium (FRET donor) bound to GST-hK-RasG12C (see below) to the loaded fluorescent GTP analog (FRET-acceptor).
The fluorescent GTP-analog EDA-GTP-Dy647P1 (2′/3′-O-(2-Aminoethyl-carbamoyl)-guanosine-5′-triphosphate labelled with Dy647P1 (Dyomics GmbH, Germany)) is synthesized by Jena Biosciences GmbH (Germany) and supplied as a 1mM aqueous solution.
(§4) The assay buffer containes 10 mM HEPES pH 7.4 (Applichem), 150 mM NaCl (Sigma), 5 mM MgCl2 (Sigma), 1 mM DTT (Thermofisher), 0.05% BSA Fraction V, pH 7.0, (ICN Biomedicals), 0.0025% (v/v) Igepal (Sigma).
The expression and purification of N-terminal GST-tagged human K-RasG12C and N-terminal His-tagged hSOS1 is described below. Concentrations of protein batches used are optimized to be within the linear range of the HTRF signal. A hRas working solution is prepared in assay buffer containing typically 100 nM GST-hK-RasG12C and 2 nM antiGST-Tb (Cisbio, France). A hSOS1 working solution is prepared in assay buffer containing typically 20nM hSOS1 and 200 nM EDA-GTP-Dy647P1. An inhibitor control solution is prepared in assay buffer containing 200 nM EDA-GTP-Dy647P1 without hSOS1.
as §1
as §2, with “the hRas” for “the Ras”, “After 10” for “After 2”, “the hSOS1” for “the SOS1”, “After 30” for “After 60”, “1: 620 nm,” for “1: 620nm,”
as §3

[3] = biological target: T3, hK-RasG12C activation by hSOS1 at high GTP concentration (Homo sapiens, UniProt Q07889); assay: hK-RasG12C activation assay by hSOS1 at high GTP concentration (Biochemical Assay 2, HTRF); settings: mean; assay 2, high concentration of 50 μM GTP; read-out: K-Ras activation by SOS high GTP (off-HTRF) IC50 - [mol/l] (mean)
T3 construct: His10-hSOS1; made in house; host or cells: E. coli BL21 (DE3)
T3 sequence (Q07889 with tags, fused parts or gaps): T1 sequence (Q07889 with tags, fused parts or gaps)
Text: Biochemical Assay 2: hK-RasG12C Activation Assay by hSOS1 at High GTP Concentration
This assay quantifies human SOS1-mediated nucleotide exchange of human K-Ras^G12C (hK-RasG12C) preloaded with a fluorescent […] and in presence of an excess of free GTP. Loaded hK-RasG12C generates a high HTRF-signal by energy transfer from antiGST-Terbium (FRET donor) bound to hK-Ras to the loaded fluorescent GDP analog (FRET-acceptor). hSOS1 activity exchanges the fluorescent GDP for non-fluorescent GTP and therefore leads to a reduction of the HTRF signal.
The fluorescent GDP-analog EDA-GDP-Dy647P1 (2′/3′-O-(2-Aminoethyl-carbamoyl)-guanosine-5′-diphosphate labelled with Dy647P1 (Dyomics GmbH, Germany)) is synthesized by Jena Biosciences GmbH (Germany) and supplied as a 1 mM aqueous solution.
The expression and purification of N-terminal GST-tagged human K-RasG12C and N-terminal His-tagged human SOS1 is described below. Concentrations of protein batches used are optimized to be within the linear range of the HTRF signal.
Preparation of GST-tagged hK-RasG12C loaded with fluorescent nucleotide is performed as follows: incubation of 11.5 μM hK-Ras^G12C with 5-fold excess GDP-Dy647 nucleotide (54 μM) in 500 μl NLS-buffer (RAS activation Kit Jena Bioscience, Kat. #PR-950) for 10 min at 37° C. Addition of 20 μl 1 M MgCl2 (Sigma) to final 40 mM and store on ice. Purification into buffer (10 mM HEPES pH 7.4 (Applichem), 150 mM NaCl (Sigma), 5 mM MgCl2 (Sigma)) by use of a PD-Minitrap desalting column (GE Healthcare). Concentration of 1 ml purified hK-Ras-GDP-Dy647 is approx. 4-5 μM.
as §4
A Ras working solution is prepared in assay buffer containing typically 80 nM loaded GST-hK-RasG12C-EDA-GDP-Dy647P1 and 2 nM antiGST-Tb (Cisbio, France). A hSOS1 working solution is prepared in assay buffer containing typically 8 nM His-hSOS1 and 100 μM GTP (Jena Bioscience, Germany). An inhibitor control solution is prepared in assay buffer containing the same concentration of hSOS1 without GTP.
Alternatively, the inhibitor control solution is prepared by supplementing the hSOS1 working solution with 20 μM of 6,7-dimethoxy-N-[(1R)-1-(1-naphthyl)ethyl]quinazolin-4-amine which is used to calibrate the assay.
as §1
as §2, with “hSOS1” for “SOS1”, “20” for “60”, “620 nm,” for “620nm,”
as §3

[4] = biological target: T4, K-Ras-wt activation by SOS (Homo sapiens, UniProt Q07889); assay: K-Ras-wt activation by SOS; assay type: biochemical; settings: mean; K-Ras wild type; read-out: K-Ras-wt activation by SOS IC50 - [mol/l] (mean)
T4 sequence (Q07889 564-1049): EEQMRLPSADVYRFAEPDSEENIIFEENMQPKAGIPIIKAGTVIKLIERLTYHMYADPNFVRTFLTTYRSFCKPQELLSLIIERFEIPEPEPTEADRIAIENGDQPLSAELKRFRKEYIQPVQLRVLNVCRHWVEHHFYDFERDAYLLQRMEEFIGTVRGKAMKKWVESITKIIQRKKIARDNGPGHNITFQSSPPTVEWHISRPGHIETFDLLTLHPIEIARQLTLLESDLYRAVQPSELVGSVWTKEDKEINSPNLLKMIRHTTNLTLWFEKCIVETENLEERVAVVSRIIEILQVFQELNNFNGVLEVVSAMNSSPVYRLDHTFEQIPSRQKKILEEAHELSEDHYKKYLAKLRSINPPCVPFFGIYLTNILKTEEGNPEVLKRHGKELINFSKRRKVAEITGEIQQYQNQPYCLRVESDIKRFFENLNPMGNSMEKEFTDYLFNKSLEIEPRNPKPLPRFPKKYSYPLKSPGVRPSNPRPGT

[5] = combination of BAY-293 with ARS-853; cited from earlier work

## CC(=O)N[C@H]1CCN(c2cc3c(N[C@H](C)c4cccc(C(F)F)c4F)nc(C)nc3cn2)C1
[1]
  pIC50: 7.10
[2]
  pIC50: 6.84
[3]
  pIC50: 6.71
[4]
  pIC50: 7.00

## Cc1nc(N[C@H](C)c2cccc(C(F)F)c2F)c2cc(N3CCCC3)ncc2n1
[1]
  pIC50: 6.73
[2]
  pIC50: 6.60
[3]
  pIC50: 6.49
[4]
  pIC50: 6.76

## CC(=O)N[C@@H]1CCN(c2cc3c(N[C@H](C)c4cccc(C(F)F)c4F)nc(C)nc3cn2)C1
[1]
  pIC50: 7.11
[2]
  pIC50: 6.96
[3]
  pIC50: 6.73
[4]
  pIC50: 7.03

## Cc1nc(N[C@H](C)c2cccc(C(F)F)c2F)c2cc(F)ncc2n1
[1]
  pIC50: < 4.70
[2]
  pIC50: < 4.70
[3]
  pIC50: < 4.70
[4]
  pIC50: < 4.70

## CCOc1cc2c(N[C@H](C)c3cccc(C(F)F)c3F)nc(C)nc2cn1
[1]
  pIC50: 6.87
[2]
  pIC50: 6.45
[3]
  pIC50: 6.07
[4]
  pIC50: 6.51

## Cc1nc(N[C@H](C)c2cccc(C(F)F)c2F)c2cc(F)nc(C)c2n1
[1]
  pIC50: < 4.70
[2]
  pIC50: < 4.70
[4]
  pIC50: < 4.70

## CC(=O)N[C@@H]1CCN(c2cc3c(N[C@H](C)c4cccc(C(F)F)c4F)nc(C)nc3c(C)n2)C1
[1]
  pIC50: 7.25
[2]
  pIC50: 6.68
[3]
  pIC50: 6.59
[4]
  pIC50: 7.08

## CNCc1ccccc1-c1csc(C(C)Nc2nc(C)nc3cc(OC)c(OC)cc23)c1 (stereo not shown) [BAY-293]
[5]
  anti-proliferative activity in vitro of the combination: Synergistic anti-proliferative activity
